Measured values: US20090023646A1, “GHRH analogues” (Centre Hospitalier de L'Universite de Montreal (CHUM), priority 2002, published 2009)
Square brackets hold non-standard residues; d marks the D form. Ends that are not written are not given here. Peptide text beside a SMILES is read from it.

Experiments:
[1] = target: T1, human GHRH receptor (Homo sapiens, UniProt Q02643); assay: Competitive 125I-GHRH binding assay in BHK cell membrane preparations expressing the human GHRH receptor; details: ratio IC50 of hGHRH(1-29)-NH2/IC50 analogue, mean±SEM
T1 construct: expressed in transfected cells; host or cells: BHK (baby hamster kidney) 570 cells
T1 sequence (Q02643 23-423): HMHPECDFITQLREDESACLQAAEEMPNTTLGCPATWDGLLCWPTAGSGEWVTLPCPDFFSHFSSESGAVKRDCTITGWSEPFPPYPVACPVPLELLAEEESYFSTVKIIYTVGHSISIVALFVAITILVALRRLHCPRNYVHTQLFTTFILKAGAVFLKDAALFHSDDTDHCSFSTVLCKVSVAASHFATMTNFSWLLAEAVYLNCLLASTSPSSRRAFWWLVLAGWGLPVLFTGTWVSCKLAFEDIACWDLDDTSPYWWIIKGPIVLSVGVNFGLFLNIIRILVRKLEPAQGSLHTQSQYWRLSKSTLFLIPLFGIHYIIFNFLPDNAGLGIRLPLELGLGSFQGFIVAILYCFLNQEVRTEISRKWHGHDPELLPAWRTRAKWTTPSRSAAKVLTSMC
Protocol: Non specific binding was determined in presence of 1 μM hGHRH(1-29)NH2. Incubation was carried out at equilibrium (23° C., 60 min) and stopped by centrifugation (12,000 g, 5 min, at 4° C.). The radioactivity content in pellets was determined by gamma counting. The affinity of hGHRH(1-29) NH2 was tested in each experiment to assess the validity of the assay and determine the relative affinity of the analogues.
Values represent the mean±SEM of 3 experiments performed in triplicate for the analogues and the mean±SEM of 2 experiments performed in triplicate for hGHRH(1-44) NH2.
For the binding assay results presented in Tables 8 to 11, values represent the mean±SEM of 8 independent experiments performed in triplicate for the analogues and the mean±SEM of 4 experiments performed in triplicate for hGHRH(1-29)NH2. […] The relative affinity was obtained by taking the ratio IC50 of hGHRH (1-29)-NH2/IC50 analogue.

[2] = in vitro; details: male, human, plasma, Mean residual amount
Protocol: (§1) Ten μl of a 300 M solution of hGHRH (1-29)NH2 or of a GHRH analogue was solubilized in dimethylsulfoxide (DMSO) and incubated in one of the following conditions: a—190 μl serum (1/100 dilution in picopure water) from 2-month-old male Sprague Dawley rats, at 37° C. for 0, 8, 15, 30 or 60 min, in polypropylene tubes; b—190 μl of human healthy volunteer plasma (from Human Whole Blood Na EDTA, males, drug free (Algorithme Pharma Inc.); project: MTL-P2-155; Lot: MTLP2155-01, supplied by LAB Dev Int); and c—190 μl of human healthy volunteer pooled serum, Lot: X409 (supplied by LAB Dev Int), at 37° C. for 0, 60, 120, 180 or 420 min, in polypropylene tubes. Proteolysis was stopped by adding 800 μl of ice-cold stop buffer (potassium-phosphate buffer, acidified to pH 0.8 with trifluoroacetic acid (TFA) and boiling 5 min (rat serum only). After centrifugation (12000 g, 5 min, 4° C.) (rat serum only), serum-peptide mixtures were passed through a conditioned Sep-Pak C-18 cartridge to extract native GHRH or a GHRH analogue residual concentrations from serum proteins. The native GHRH or the analogue was eluted in 2 ml of 50% acetonitrile-0.01% TFA/50% 0.01% aqueous TFA. Two hundred μl of extracted peptide, representing 1 μg of GHRH or analogue at time 0, was quantified by analytical HPLC, using one μ-Bondapak C18 column (10 μm particle size, 0.39×15 cm) (rat serum) or two C18 column in series (human serum and plasma) and a binary solvent system composed of NaClO4 0.01 M, pH 2.5 and acetonitrile. A linear gradient from 30 to 60% acetonitrile over 45 min (rat serum) or 30 to 50% (human serum and plasma) was used.
(§2) More specifically, the values represent the mean, standard deviation and standard error from the mean of 3 to 7 experiments.

[3] = In vitro proteolysis assay in rat serum; type: in vitro ADME; details: mean±SEM; for Residual concentration: incubation 0 min; for remaining at 8 min, 15 µM / remaining at 0.25 h, 15 µM / remaining at 0.5 h, 15 µM / remaining at 1 h, 15 µM: male, Sprague Dawley, read-out: Residual concentration; for remaining at 8 min, 15 µM: diluted 1/100, incubation 8 min; for remaining at 0.25 h, 15 µM: diluted 1/100, incubation 15 min; for remaining at 0.5 h, 15 µM: diluted 1/100, incubation 30 min; for remaining at 1 h, 15 µM: diluted 1/100, incubation 60 min
Protocol: Proteolysis was stopped by adding 800 μl of ice-cold stop buffer (potassium-phosphate buffer, acidified to pH 0.8 with trifluoroacetic acid (TFA) and boiling 5 min (rat serum only). After centrifugation (12000 g, 5 min, 4° C.) (rat serum only), serum-peptide mixtures were passed through a conditioned Sep-Pak C-18 cartridge to extract native GHRH or a GHRH analogue residual concentrations from serum proteins. The native GHRH or the analogue was eluted in 2 ml of 50% acetonitrile-0.01% TFA/50% 0.01% aqueous TFA. Two hundred μl of extracted peptide, representing 1 μg of GHRH or analogue at time 0, was quantified by analytical HPLC, using one μ-Bondapak C18 column (10 μm particle size, 0.39×15 cm) (rat serum) or two C18 column in series (human serum and plasma) and a binary solvent system composed of NaClO4 0.01 M, pH 2.5 and acetonitrile. A linear gradient from 30 to 60% acetonitrile over 45 min (rat serum) or 30 to 50% (human serum and plasma) was used.

[4] = In vitro proteolysis assay in human serum; type: in vitro ADME; details: human serum
Protocol: as §1, §2

CC[C@H](C)[C@H](NC(=O)[C@H](C)NC(=O)[C@H](CC(=O)O)NC(=O)[C@@H](C)NC(=O)[C@@H](N)Cc1ccc(O)cc1)C(=O)N[C@@H](Cc1ccccc1)C(=O)N[C@H](C(=O)N[C@@H](C)C(=O)N[C@@H](CO)C(=O)N[C@@H](Cc1ccc(O)cc1)C(=O)N[C@@H](CCCNC(=N)N)C(=O)N[C@@H](CCCCN)C(=O)N[C@H](C(=O)N[C@@H](CC(C)C)C(=O)N[C@@H](C)C(=O)N[C@@H](CCC(N)=O)C(=O)N[C@@H](CC(C)C)C(=O)N[C@@H](CO)C(=O)N[C@@H](C)C(=O)N[C@@H](CCCNC(=N)N)C(=O)N[C@@H](CCCCN)C(=O)N[C@@H](CCCCN)C(=O)N[C@@H](CC(C)C)C(=O)N[C@@H](CCC(N)=O)C(=O)N[C@@H](CC(=O)O)C(=O)N[C@H](C(=O)N[C@@H](CCSC)C(=O)N[C@@H](CO)C(=O)N[C@@H](CCCNC(=N)N)C(N)=O)[C@@H](C)CC)C(C)C)[C@@H](C)O [GHRH analogue #1, [D-Ala^2, Ala^8, Ala^15, Lys^22] hGHRH(1-29)-NH2] (H-Y[dA]DAIFTASYRKVLAQLSARKKLQDIMSR-NH2; N-terminus assumed)
Relative binding affinity (R1) in comparison with hGHRH(1-29)NH2 in BHK cells expressing the hGHRH receptor ([1]; listed as 1): 499 ± 234 | Relative binding affinity (R1) in comparison with hGHRH(1-29)NH2 in BHK cells expressing the hGHRH receptor ([1]; listed as #1): significantly higher binding affinity | remaining at 1 h, 15 µM [2]: 79% | remaining at 2 h, 15 µM [2]: 63% | remaining at 3 h, 15 µM [2]: 68% | Residual concentration [3]: 100 ± 0 % of initial concentration | remaining at 8 min, 15 µM [3]: 75 ± 12% | remaining at 0.25 h, 15 µM [3]: 70 ± 15% | remaining at 0.5 h, 15 µM [3]: 53 ± 8% | remaining at 1 h, 15 µM [3]: 30 ± 6%

CC[C@H](C)[C@H](NC(=O)[C@H](C)NC(=O)[C@H](CC(=O)O)NC(=O)[C@@H](C)NC(=O)[C@@H](N)Cc1ccc(O)cc1)C(=O)N[C@@H](Cc1ccccc1)C(=O)N[C@H](C(=O)N[C@@H](CC(N)=O)C(=O)N[C@@H](CO)C(=O)N[C@H](Cc1ccc(O)cc1)C(=O)N[C@@H](CCCNC(=N)N)C(=O)N[C@@H](CCCCN)C(=O)N[C@H](C(=O)N[C@@H](CC(C)C)C(=O)NCC(=O)N[C@@H](CCC(N)=O)C(=O)N[C@@H](CC(C)C)C(=O)N[C@@H](CO)C(=O)N[C@@H](C)C(=O)N[C@@H](CCCNC(=N)N)C(=O)N[C@@H](CCCCN)C(=O)N[C@@H](CCCCN)C(=O)N[C@@H](CC(C)C)C(=O)N[C@@H](CCC(N)=O)C(=O)N[C@@H](CC(=O)O)C(=O)N[C@H](C(=O)N[C@@H](CCSC)C(=O)N[C@@H](CO)C(=O)N[C@@H](CCCNC(=N)N)C(N)=O)[C@@H](C)CC)C(C)C)[C@@H](C)O [GHRH analogue #3, [D-Ala^2, D-Tyr^10, Lys^22] hGHRH(1-29)-NH2] (H-Y[dA]DAIFTNS[dY]RKVLGQLSARKKLQDIMSR-NH2; N-terminus assumed)
Relative binding affinity (R1) in comparison with hGHRH(1-29)NH2 in BHK cells expressing the hGHRH receptor ([1]; D-Tyr^10, Lys^22]human GHRH(1-29)NH2): 239 ± 55 | remaining at 1 h, 15 µM [2]: 87% | remaining at 2 h, 15 µM [2]: 78% | remaining at 3 h, 15 µM [2]: 81% | Residual concentration [3]: 100 ± 0 % of initial concentration | remaining at 8 min, 15 µM [3]: 82 ± 7% | remaining at 0.25 h, 15 µM [3]: 88 ± 7% | remaining at 0.5 h, 15 µM [3]: 70 ± 12% | remaining at 1 h, 15 µM [3]: 36 ± 4%

CC[C@H](C)[C@H](NC(=O)[C@H](C)NC(=O)[C@H](CC(=O)O)NC(=O)[C@@H](C)NC(=O)[C@@H](N)Cc1ccc(O)cc1)C(=O)N[C@@H](Cc1ccccc1)C(=O)N[C@H](C(=O)N[C@@H](C)C(=O)N[C@@H](CO)C(=O)N[C@H](Cc1ccc(O)cc1)C(=O)N[C@@H](CCCNC(=N)N)C(=O)N[C@@H](CCCCN)C(=O)N[C@H](C(=O)N[C@@H](CC(C)C)C(=O)N[C@@H](C)C(=O)N[C@@H](CCC(N)=O)C(=O)N[C@@H](CC(C)C)C(=O)N[C@@H](CO)C(=O)N[C@@H](C)C(=O)N[C@@H](CCCNC(=N)N)C(=O)N[C@H](CCCCN)C(=O)N[C@@H](CCCCN)C(=O)N[C@@H](CC(C)C)C(=O)N[C@@H](CCC(N)=O)C(=O)N[C@@H](CC(=O)O)C(=O)N[C@H](C(=O)N[C@@H](CCSC)C(=O)N[C@@H](CO)C(=O)N[C@@H](CCCNC(=N)N)C(N)=O)[C@@H](C)CC)C(C)C)[C@@H](C)O [GHRH analogue #4, [D-Ala^2, Ala^8, D-Tyr^10, Ala^15, D-Lys^21, Lys^22] hGHRH(1-29)-NH2] (H-Y[dA]DAIFTAS[dY]RKVLAQLSAR[dK]KLQDIMSR-NH2; N-terminus assumed)
Relative binding affinity (R1) in comparison with hGHRH(1-29)NH2 in BHK cells expressing the hGHRH receptor [1]: 0.05 ± 0.01 | Residual concentration [3]: 100 ± 0 % of initial concentration | remaining at 8 min, 15 µM [3]: 98 ± 2% | remaining at 0.25 h, 15 µM [3]: 100% | remaining at 0.5 h, 15 µM [3]: 99 ± 1% | remaining at 1 h, 15 µM [3]: 97 ± 3%

CC[C@H](C)[C@H](NC(=O)[C@H](C)NC(=O)[C@H](CC(=O)O)NC(=O)[C@H](C)NC(=O)[C@@H](N)Cc1ccc(O)cc1)C(=O)N[C@@H](Cc1ccccc1)C(=O)N[C@H](C(=O)N[C@@H](CC(N)=O)C(=O)N[C@@H](CO)C(=O)N[C@@H](Cc1ccc(O)cc1)C(=O)N[C@@H](CCCNC(=N)N)C(=O)N[C@@H](CCCCN)C(=O)N[C@H](C(=O)N[C@@H](CC(C)C)C(=O)NCC(=O)N[C@@H](CCC(N)=O)C(=O)N[C@@H](CC(C)C)C(=O)N[C@@H](CO)C(=O)N[C@@H](C)C(=O)N[C@@H](CCCNC(=N)N)C(=O)N[C@@H](CCCCN)C(=O)N[C@@H](CC(C)C)C(=O)N[C@@H](CC(C)C)C(=O)N[C@@H](CCC(N)=O)C(=O)N[C@@H](CC(=O)O)C(=O)N[C@H](C(=O)N[C@@H](CCSC)C(=O)N[C@@H](CO)C(=O)N[C@@H](CCCNC(=N)N)C(N)=O)[C@@H](C)CC)C(C)C)[C@@H](C)O [hGHRH(1-29)NH2, reference compound]
Mean residual amount ([4]; incubation time 0 min): 100% | Mean residual amount ([4]; incubation time 420 min): disappeared totally | remaining at 1 h, 15 µM ([4]; human, pooled human serum, incubation time 60 min, read-out: Mean residual amount): 57% | remaining at 2 h, 15 µM ([4]; human, pooled human serum, incubation time 120 min, read-out: Mean residual amount): 37% | remaining at 3 h, 15 µM ([4]; human, pooled human serum, incubation time 180 min, read-out: Mean residual amount): 16% | remaining at 7 h, 15 µM ([4]; human, pooled human serum, incubation time 420 min, read-out: Mean residual amount): 0% | remaining at 1 h, 15 µM [2]: 53% | remaining at 2 h, 15 µM [2]: 44% | remaining at 3 h, 15 µM [2]: 23% | remaining at 7 h, 15 µM [2]: 5% | Residual concentration [3]: 100 ± 0 % of initial concentration | remaining at 8 min, 15 µM [3]: 81 ± 2% | remaining at 0.25 h, 15 µM [3]: 66 ± 3% | remaining at 0.5 h, 15 µM [3]: 43 ± 2% | remaining at 1 h, 15 µM [3]: 16 ± 1%

YADAIFTAAYRKVLAQLSARKALQDIMSR-NH2 [GHRH analogue #2, [Ala^8, Ala^9, Ala^15, Ala^22] hGHRH(1-29)-NH2]
Residual concentration [3]: 100 ± 0 % of initial concentration | remaining at 8 min, 15 µM [3]: 83 ± 3% | remaining at 0.25 h, 15 µM [3]: 73 ± 5% | remaining at 0.5 h, 15 µM [3]: 53 ± 3% | remaining at 1 h, 15 µM [3]: 29 ± 2%
